Results on 23 molecules are retold here after patent US11220502B2, “Sulfone compounds and derivatives for the treatment and prophylaxis of virus infection” (Hoffmann-La Roche Inc., priority 2018, dated 2022).

Structures are written as SMILES. pEC50: −log10 of the molar value. Like-named read-outs stand apart in the source and are kept apart here.

The assay addresses T1, human TLR7 (Homo sapiens, UniProt Q9NYK1).
T1 sequence (Q9NYK1 27-1049): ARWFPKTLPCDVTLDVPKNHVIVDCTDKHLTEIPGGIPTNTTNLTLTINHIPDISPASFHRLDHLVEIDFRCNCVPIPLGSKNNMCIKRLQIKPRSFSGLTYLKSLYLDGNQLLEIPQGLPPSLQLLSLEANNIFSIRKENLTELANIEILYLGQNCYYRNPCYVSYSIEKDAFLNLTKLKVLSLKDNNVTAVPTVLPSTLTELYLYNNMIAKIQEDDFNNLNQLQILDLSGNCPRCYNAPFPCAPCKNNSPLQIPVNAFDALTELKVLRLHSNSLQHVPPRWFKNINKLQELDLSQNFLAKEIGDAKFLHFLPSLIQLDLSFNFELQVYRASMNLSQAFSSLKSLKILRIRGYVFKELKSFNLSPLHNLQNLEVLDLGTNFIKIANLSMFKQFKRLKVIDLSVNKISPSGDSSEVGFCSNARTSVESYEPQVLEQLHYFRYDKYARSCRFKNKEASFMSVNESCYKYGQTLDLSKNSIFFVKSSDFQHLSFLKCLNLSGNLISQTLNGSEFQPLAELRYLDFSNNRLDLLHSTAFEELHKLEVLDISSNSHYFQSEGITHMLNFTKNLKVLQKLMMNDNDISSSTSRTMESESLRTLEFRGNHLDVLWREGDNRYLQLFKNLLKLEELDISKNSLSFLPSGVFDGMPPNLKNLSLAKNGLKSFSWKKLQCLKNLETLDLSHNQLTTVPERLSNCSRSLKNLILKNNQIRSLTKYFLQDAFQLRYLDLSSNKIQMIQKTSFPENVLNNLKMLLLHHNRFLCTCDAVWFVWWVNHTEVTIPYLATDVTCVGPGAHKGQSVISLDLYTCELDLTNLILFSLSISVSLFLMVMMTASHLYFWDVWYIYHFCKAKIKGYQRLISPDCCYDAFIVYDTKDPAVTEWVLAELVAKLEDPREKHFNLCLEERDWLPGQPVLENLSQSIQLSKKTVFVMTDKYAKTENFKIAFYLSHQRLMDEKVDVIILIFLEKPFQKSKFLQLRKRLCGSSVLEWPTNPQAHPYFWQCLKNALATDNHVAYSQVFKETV
Kind of assay: HEK293-Blue-hTLR-7 cells assay (SEAP reporter, NF-κB activation). The following applies: for pEC50: HEK293-Blue-hTLR-7 cells, 20 hrs incubation, SEAP reporter; for Ratio (EC50(prodrug)/EC50(active form)): calculated ratio of prodrug EC50 to EC50 of corresponding active form. Format: cell-based. An excerpt: HEK293-Blue-hTLR-7 Cells Assay
A stable HEK293-Blue-hTLR-7 cell line was purchased from InvivoGen (Cat. #: hkb-ht1r7, San Diego, Calif., USA). These cells were designed for studying the stimulation of human TLR7 by monitoring the activation of NF-κB. A SEAP (secreted embryonic alkaline phosphatase) reporter gene was placed under the control of the IFN-β minimal promoter fused to five NF-κB and AP-1-binding sites. The SEAP was induced by activating NF-κB and AP-1 via stimulating HEK-Blue hTLR7 cells with TLR7 ligands. Therefore the reporter expression was regulated by the NF-κB promoter upon stimulation of human TLR7 for 20 hrs. The cell culture supernatant SEAP reporter activity was determined using QUANTI-Blue™ kit (Cat. #: rep-qb1, Invivogen, San Diego, Calif., USA) at a wavelength of 640 nm, a detection medium that turns purple or blue in the presence of alkaline phosphatase.
HEK293-Blue-hTLR7 cells were incubated at a density of 250,000˜450,000 cells/mL in a volume of 180 μL in a 96-well plate in Dulbecco's Modified Eagle's medium (DMEM) containing 4.5 g/L glucose, 50 U/mL penicillin, […], […], 2 mM L-glutamine, 10% (V/V) heat-inactivated fetal bovine serum for 24 hrs. Then the HEK293-Blue-hTLR-7 cells were incubated with addition of 20 μL test compound in a serial dilution in the presence of final DMSO at 1% and perform incubation under 37° C. in a CO2 incubator for 20 hrs. Then 20 μL of the supernatant from each well was incubated with 180 μL Quanti-blue substrate solution at 37° C. for 2 hrs and the absorbance was read at 620˜655 nm using a spectrophotometer. The signalling pathway that TLR7 activation leads to downstream NF-κB activation has been widely accepted, and therefore similar reporter assay was also widely used for evaluating TLR7 agonist (Tsuneyasu Kaisho and Takashi Tanaka, Trends in Immunology, Volume 29, Issue 7, July 2008, […]; Hiroaki Hemmi et al, Nature Immunology 3, 196-200 (2002)).
The Compounds and Examples of the present invention were tested in HEK293-hTLR-7 assay for their TLR7 agonism activity as described herein and results are listed in Table 1. […] The calculated ratio of EC50(prodrug)/EC50(active form) were within the range from 27.7 to about 8233.

Where [1] appears, read: corresponding active form, read-out: HEK293-hTLR-7 EC50 (Active form).
Where [2] appears, read: prodrug, read-out: HEK293-hTLR-7 EC50 (Prodrug).

On to `CCCS(=O)(=O)c1nc(N)c2[nH]c(=O)n(Cc3ccccc3)c2n1` [Compound 1a, 6-amino-9-benzyl-2-propylsulfonyl-7H-purin-8-one], for which, under setting [1], the pEC50 is 7.12.
Take `CCS(=O)(=O)c1nc(N)c2[nH]c(=O)n(Cc3ccccc3)c2n1` [Compound 3a, 6-amino-9-benzyl-2-ethylsulfonyl-7H-purin-8-one]: the pEC50 under setting [1] was 6.77.
Still for that read-out and setting: in the case of `CCCS(=O)(=O)c1nc(N)c2[nH]c(=O)n(Cc3ccc(Cl)cc3)c2n1` [Compound 6a, 6-amino-9-[(4-chlorophenyl)methyl]-2-propylsulfonyl-7H-purin-8-one] it was 7.68; in that of `CCCS(=O)(=O)c1nc(N)c2[nH]c(=O)n(Cc3ccc(C)cc3)c2n1` [Compound 12a, 6-amino-2-(propylsulfonyl)-9-(p-tolylmethyl)-7H-purin-8-one], 7.19; in that of `CCS(=O)(=O)c1nc(N)c2[nH]c(=O)n(Cc3ccc(C)cc3)c2n1` [Compound 14a, 6-amino-2-ethylsulfonyl-9-(p-tolylmethyl)-7H-purin-8-one], 7.19.
Same read-out and setting: in the case of `CCS(=O)(=O)c1nc(N)c2[nH]c(=O)n(Cc3ccc(F)cc3)c2n1` [Compound 18a, 6-Amino-2-ethylsulfonyl-9-[(4-fluorophenyl)methyl]-7H-purin-8-one] it was 7.22; in that of `CCS(=O)(=O)c1nc(N)c2[nH]c(=O)n(Cc3ccc(F)cc3)c2n1` [Compound 20a, 6-Amino-2-ethylsulfonyl-9-[(4-fluorophenyl)methyl]-7H-purin-8-one], 8.10.
For `CCS(=O)(=O)c1nc(N)c2[nH]c(=O)n(Cc3ccc(Br)cc3)c2n1` [Compound 22a, 6-Amino-2-ethylsulfonyl-9-[(4-bromophenyl)methyl]-7H-purin-8-one], the pEC50 under setting [1] is 7.64.
Turning to `CCCS(=O)(=O)c1nc(N)c2c(n1)n(Cc1ccccc1)c(=O)n2C(=O)N(C)CC` [Example 1, 6-Amino-9-benzyl-N-ethyl-N-methyl-8-oxo-2-propylsulfonyl-purine-7-carboxamide], the “Ratio (EC50(prodrug)/EC50(active form))” value is recorded as 145.3. In addition, the pEC50 under setting [2] is 4.96.
For the molecule `CCCN(C)C(=O)n1c(=O)n(Cc2ccccc2)c2nc(S(=O)(=O)CCC)nc(N)c21` [Example 2, 6-Amino-9-benzyl-N-methyl-8-oxo-N-propyl-2-propylsulfonyl-purine-7-carboxamide], the “Ratio (EC50(prodrug)/EC50(active form))” value is 86.7. For the same molecule, the pEC50 under setting [2] is 5.19.
Consider `CCN(C)C(=O)n1c(=O)n(Cc2ccccc2)c2nc(S(=O)(=O)CC)nc(N)c21` [Example 3, 6-Amino-9-benzyl-N-ethyl-2-ethylsulfonyl-N-methyl-8-oxo-purine-7-carboxamide], for which the “Ratio (EC50(prodrug)/EC50(active form))” value is 614.1. Besides, the pEC50 under setting [2] is 3.98.
With `CCCN(C)C(=O)n1c(=O)n(Cc2ccccc2)c2nc(S(=O)(=O)CC)nc(N)c21` [Example 4, 6-Amino-9-benzyl-2-ethylsulfonyl-N-methyl-8-oxo-N-propyl-purine-7-carboxamide], the “Ratio (EC50(prodrug)/EC50(active form))” value is given as 514.7. In addition, under setting [2], the pEC50 is 4.06.
In the same order, the values of `CCS(=O)(=O)c1nc(N)c2c(n1)n(Cc1ccccc1)c(=O)n2C(=O)N1CCCC1` [Example 5, 6-Amino-9-benzyl-2-ethylsulfonyl-7-(pyrrolidine-1-carbonyl)purin-8-one] are 174.7 and 4.53.
The like results for `CCCN(C)C(=O)n1c(=O)n(Cc2ccc(Cl)cc2)c2nc(S(=O)(=O)CCC)nc(N)c21` [Example 6, 6-Amino-9-[(4-chlorophenyl)methyl]-N-methyl-8-oxo-N-propyl-2-propylsulfonyl-purine-7-carboxamide] were, in that order, 123.8 and 5.59.
The like results for `CCCS(=O)(=O)c1nc(N)c2c(n1)n(Cc1ccc(Cl)cc1)c(=O)n2C(=O)N(C)CC` [Example 7, 6-Amino-9-[(4-chlorophenyl)methyl]-N-ethyl-N-methyl-8-oxo-2-propylsulfonyl-purine-7-carboxamide] were, in that order, 152.4 and 5.49.
`CCN(C)C(=O)n1c(=O)n(Cc2ccc(Cl)cc2)c2nc(S(=O)(=O)CC)nc(N)c21` [Example 9, 6-Amino-9-[(4-chlorophenyl)methyl]-N-ethyl-2-ethylsulfonyl-N-methyl-8-oxo-purine-7-carboxamide]: the “Ratio (EC50(prodrug)/EC50(active form))” value was 219.3. Besides, the pEC50 under setting [2] was 4.74.
Take `CCS(=O)(=O)c1nc(N)c2c(n1)n(Cc1ccc(Cl)cc1)c(=O)n2C(=O)N(C)C` [Example 10, 6-Amino-9-[(4-chlorophenyl)methyl]-2-ethylsulfonyl-N,N-dimethyl-8-oxo-purine-7-carboxamide]: the “Ratio (EC50(prodrug)/EC50(active form))” value was 27.7. In addition, the pEC50 under setting [2] was 5.64.
In the same order, the values of `CCS(=O)(=O)c1nc(N)c2c(n1)n(Cc1ccc(Cl)cc1)c(=O)n2C(=O)N(C)CCOC` [Example 11, 6-Amino-9-[(4-chlorophenyl)methyl]-2-ethylsulfonyl-N-(2-methoxyethyl)-N-methyl-8-oxo-purine-7-carboxamide] are 121.7 and 5.00.
In the same order, the values of `CCCN(C)C(=O)n1c(=O)n(Cc2ccc(C)cc2)c2nc(S(=O)(=O)CCC)nc(N)c21` [Example 12, 6-Amino-N-methyl-8-oxo-N-propyl-2-propylsulfonyl-9-(p-tolylmethyl)purine-7-carboxamide] are 50.8 and 5.48.
On to `CCCS(=O)(=O)c1nc(N)c2c(n1)n(Cc1ccc(C)cc1)c(=O)n2C(=O)N(C)CC` [Example 13, 6-Amino-N-ethyl-N-methyl-8-oxo-2-propylsulfonyl-9-(p-tolylmethyl)purine-7-carboxamide], for which the “Ratio (EC50(prodrug)/EC50(active form))” value is recorded as 147.7. For the same molecule, under setting [2], the pEC50 was 5.02.
In the same order, the values of `CCCN(C)C(=O)n1c(=O)n(Cc2ccc(C)cc2)c2nc(S(=O)(=O)CC)nc(N)c21` [Example 14, 6-Amino-2-ethylsulfonyl-N-methyl-8-oxo-N-propyl-9-(p-tolylmethyl)purine-7-carboxamide] are 1053 and 4.16.
For the molecule `CCN(CC)C(=O)n1c(=O)n(Cc2ccc(C)cc2)c2nc(S(=O)(=O)CC)nc(N)c21` [Example 15, 6-Amino-N,N-diethyl-2-ethylsulfonyl-8-oxo-9-(p-tolylmethyl)purine-7-carboxamide], the “Ratio (EC50(prodrug)/EC50(active form))” value is 86.2. Under setting [2], the pEC50 is 5.25.
The like results for `CCN(C)C(=O)n1c(=O)n(Cc2ccc(C)cc2)c2nc(S(=O)(=O)CC)nc(N)c21` [Example 16, 6-Amino-N-ethyl-2-ethylsulfonyl-N-methyl-8-oxo-9-(p-tolylmethyl)purine-7-carboxamide] were, in that order, 445.9 and 4.36.
